Literature values, collected in patent US20110015074A1, “STABILIZED HERBICIDAL FORMULATIONS AND METHODS OF USE” (priority 2009, published 2011).

Details: sunlight (UV), after the end of the second year of storage period

For `CCSC(C)CC1CC(=O)C(/C(CC)=N/OC/C=C/Cl)=C(O)C1` (racemic) [clethodim (technical), (±)-2-[(E)-1-[(E)-3-Chloroallyloxyimino]propyl]-5-[2-(ethylthio)propyl]-3-hydroxycyclohex-2-enone], the “loss or degradation of clethodim” value is given as 42.33 % active ingredient.
